This is an account of results in patent US20250154220A1, “INSULIN ANALOGS FOR THE TREATMENT OF HUMAN METABOLIC DISORDER AND DISEASE” (Ambio, Inc., priority 2023, published 2025).

“Also recorded” adds a separate entry of the source.

Series [1] in a line: Body weight of non-fasted Sprague-Dawley rats after subcutaneous injection. Type of series: in vivo. The following applies: SD rats, over 120 hours, FIG. 13 and FIG. 16. The method, then: (§1) Male Sprague-Dawley (SD) rats at the age of 8-10 weeks old were administered a dose of 175 nmol-200 nmol insulin analogs 1, 2, 3, 4, APi3545, APi3546, APi3547, and APi3549 through subcutaneous injection. Insulin Degludec was used as a positive control. A vehicle control consisted of glycerol (19.6 mg), metacresol (1.72 mg), phenol (1.50 mg), zinc acetate ([…]), and WFI to 1 mL.

Series [2] relates to Sprague-Dawley (SD) rats. The series is described as follows: c-peptide levels in non-fasted Sprague-Dawley rats after subcutaneous injection. Format: in vivo. The settings on record: 175 nmol-200 nmol s.c.; for duration of c-peptide level compared to rats injected with Degludec: over 120 hours. The procedure:
as §1

Series [3] has as its system Sprague-Dawley (SD) rats. Description: Glucose levels in non-fasted Sprague-Dawley rats after subcutaneous injection. Type of series: in vivo. The following applies: for duration of decrease in glucose levels compared to rats injected with Degludec: over 120 hours; for glucose area under the curve (AUC) values: FIG. 9 (0-96 hour) and FIG. 15 (0-72 hour). The method, then:
as §1

A further series concerns the target T1, IGF-1R (Homo sapiens, UniProt P08069).
T1 construct: expressed in transfected cells; host or cells: IGF-1R (Luc) HEK293 reporter cells
Description: IGF-1R activation in IGF-1R (Luc) HEK293 reporter cells. Format: cell-based. The following applies: up to 4 μg/mL (1.6 μM) concentration. The source says:
Insulin-like growth factor (IGF-1R) is a tyrosine kinase type receptor that regulates cell growth and proliferation and can be activated by IGF-1, IGF-2, and insulin. […]

Series [4] relates to ICR mice. The series is described as follows: Biopotency in ICR mice against insulin reference standard, chapter <1211> of Chinese Pharmacopeia (blood glucose 40 min after injection). The settings on record: low and high dosing solutions 0.05 and 0.1 IU/mL, blood 40 minutes after administration, FIG. 7. Format: in vivo. The procedure: The biopotency of the eight insulin analogs was determined by comparison with the insulin reference standard following chapter <1211> of Chinese Pharmacopeia. In particular, the insulin analogs and insulin reference standard were prepared with either diluent 1 or diluent 2. Diluent 1 comprises 0.9% sodium chloride at a pH of 2.5 (adjusted with HCl) and 0.2% phenol. Diluent 2 comprises 0.9% sodium chloride at a pH of 2.5 (adjusted with HCl). The insulin reference standard (27.2 IU/mg) and the insulin analogs (calculated as 25 IU/mg) were prepared with diluent 1. In addition, low- and high-dosing solutions (0.05 IU/mL and 0.1 IU/mL, respectively) of insulin reference standard and test analogs were prepared with diluent 2. Following chapter <1211> of Chinese Pharmacopeia, ICR mice (25-28 g, 6 animals per group) were injected with 0.2-0.3 mL of low and high dosing solution of the eight insulin analogs and insulin standard. Low and high doses of insulin standard and insulin analogs were administered to the mice following parallel design/protocol. […] The glucose concentration of each blood sample was determined by the glucose oxidase-peroxidase method (Roche blood glucose test strips). […] FIG. 6 summarizes the relative biopotency of the insulin analogs by comparing the calculated biopotency and measured biopotency.

Series [5] relates to ICR mice. The settings on record: reference standard as labelled; cited from earlier work.
Series [6] in a line: Body weight of db/db mice measured daily for 3 days after single subcutaneous dose. Type of series: in vivo. The settings on record: Day 1-3, 1.5 IU/mg Degludec, all dose levels of Analog #1, FIGS. 3A-3B. The method, then:
Accordingly, the ability of insulin analog 1 (FIG. 1A) to control the glucose profile in a db/db type II diabetes model was tested. As a control, wild type m/m mouse strain was included in the study. Mice were male, between ages 6-8 weeks, and the total group size was 8. The insulin analogs were delivered as a subcutaneous single dose. The dose volume was 5 mL/Kg ([…] per 25 g mouse). Mice were injected at the following dose levels: Degludec 1.5 IU/kg (model) and insulin analog #1 (FIG. 1A) at 0.04 mg/kg, 0.12 mg/kg, or 0.36 mg/kg. All insulin compounds (Degludec and analog #1) were diluted with 0.9% sodium chloride (vehicle, normal saline). Vehicle controls were comprised of 0.9% sodium chloride.
(§2) Blood collection for glucose plasma concentration measurements occurred at Oh (0-60 min before dosing), 0.5 h, 1 h, 2 h, 4 h, 6 h, 8 h, 10 h, 12 h, 18 h, 24 h, 30 h after the single dose. Moreover, the mouse body weight was measured daily for 3 days.

A further series relates to db/db mice. The series is described as follows: Glucose profile after single subcutaneous dose in db/db type II diabetes mouse model. Format: in vivo.
Excerpt: Murine db/db murine strain is a well-accepted type II diabetes model that recapitulates most aspects of human type II diabetes. In particular, db/db mice carry mutations in the leptin receptor that lead to obesity, decreased insulin receptor sensitivity, and subsequent increased levels of blood glucose, decreased β-cell function, and elevated HBA1c levels. Like human Type II diabetes, the diabetic condition in db/db mice is progressive. Animals have near normal or slightly elevated plasma glucose (PG) and relatively normal β-cell function at 6 weeks of age. Fasting plasma glucose (FPG) levels gradually elevate over several weeks and β-cell function declines such that by about 16 weeks of age FPG is very high (>400 mg/dL) and j-cell function has entirely degenerated. The db/db mouse model may be used in an acute setting but is more typically used in a chronic setting to evaluate a test compound's cumulative action over several weeks of treatment. The variability is reasonably low such that good statistically significant effects are seen with validating compounds with group sizes of about 8 animals.
Accordingly, the ability of insulin analog 1 (FIG. 1A) to control the glucose profile in a db/db type II diabetes model was tested. As a control, wild type m/m mouse strain was included in the study. Mice were male, between ages 6-8 weeks, and the total group size was 8. The insulin analogs were delivered as a subcutaneous single dose. The dose volume was 5 mL/Kg (125 L per 25 g mouse). […] All insulin compounds (Degludec and analog #1) were diluted with 0.9% sodium chloride (vehicle, normal saline). Vehicle controls were comprised of 0.9% sodium chloride.
as §2

The mark [7] stands for this setting: SD rats, 175 nmol-200 nmol s.c.

T1 sequence (P08069 31-736 limits assumed): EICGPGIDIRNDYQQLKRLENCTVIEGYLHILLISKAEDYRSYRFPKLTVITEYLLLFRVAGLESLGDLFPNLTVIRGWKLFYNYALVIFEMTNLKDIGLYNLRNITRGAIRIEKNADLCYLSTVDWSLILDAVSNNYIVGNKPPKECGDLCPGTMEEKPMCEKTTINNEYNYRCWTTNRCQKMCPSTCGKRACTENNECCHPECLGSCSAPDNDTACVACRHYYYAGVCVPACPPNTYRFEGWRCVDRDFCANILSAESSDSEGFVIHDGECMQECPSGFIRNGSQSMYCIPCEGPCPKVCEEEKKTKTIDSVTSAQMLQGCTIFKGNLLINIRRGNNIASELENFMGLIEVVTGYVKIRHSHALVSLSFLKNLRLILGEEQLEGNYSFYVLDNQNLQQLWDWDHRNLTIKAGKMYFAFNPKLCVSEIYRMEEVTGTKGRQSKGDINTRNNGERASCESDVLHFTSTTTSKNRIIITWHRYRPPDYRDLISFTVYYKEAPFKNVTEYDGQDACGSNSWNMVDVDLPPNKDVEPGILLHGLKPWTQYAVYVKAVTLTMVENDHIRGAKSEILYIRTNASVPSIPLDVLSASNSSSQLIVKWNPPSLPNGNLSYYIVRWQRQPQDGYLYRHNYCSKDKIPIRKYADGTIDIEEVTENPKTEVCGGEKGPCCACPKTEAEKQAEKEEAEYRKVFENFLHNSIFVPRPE
T1 sequence (P08069 741-1367 limits assumed): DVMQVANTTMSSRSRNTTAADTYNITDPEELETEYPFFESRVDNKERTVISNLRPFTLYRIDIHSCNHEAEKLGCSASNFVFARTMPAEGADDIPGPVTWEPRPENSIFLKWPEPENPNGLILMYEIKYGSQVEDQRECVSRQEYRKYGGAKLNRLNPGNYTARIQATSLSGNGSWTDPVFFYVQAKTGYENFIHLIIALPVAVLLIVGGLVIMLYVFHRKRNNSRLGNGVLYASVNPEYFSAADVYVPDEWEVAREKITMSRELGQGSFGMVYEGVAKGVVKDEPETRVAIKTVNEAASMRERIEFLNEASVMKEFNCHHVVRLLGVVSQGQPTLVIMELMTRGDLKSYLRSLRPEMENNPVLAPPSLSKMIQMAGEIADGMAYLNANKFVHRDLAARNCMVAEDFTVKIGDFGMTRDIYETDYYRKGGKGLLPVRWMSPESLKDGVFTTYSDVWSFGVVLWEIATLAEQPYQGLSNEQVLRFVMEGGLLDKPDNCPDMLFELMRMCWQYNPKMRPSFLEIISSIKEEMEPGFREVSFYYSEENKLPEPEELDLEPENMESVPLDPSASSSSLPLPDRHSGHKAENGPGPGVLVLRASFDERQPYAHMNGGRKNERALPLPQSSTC

For “APi3546: A-chain SEQ ID NO: 11 (A14 Aad), B-chain SEQ ID NO: 18 (B16 His(5-I), B25 3-Pal); structure FIG. 1I”, the “rate of body weight increase compared to rats injected with Degludec” value (from here on “rate of body weight increase”) in series [1] is “lower rate of body weight increase”. The “duration of c-peptide level compared to rats injected with Degludec” value with Sprague-Dawley (SD) rats [2] is “maintained the level of c-peptide for a longer time”. In addition, the “duration of decrease in glucose levels compared to rats injected with Degludec” value (“duration of decrease in glucose levels” below) in the series on Sprague-Dawley (SD) rats [3] (setting [7]) was “longer lasting decrease in glucose levels”.
As to “insulin analog 4: A-chain SEQ ID NO: 3 (A14 Gla), B-chain SEQ ID NO: 10 (B16 and B25 Pal, B28 Pip); structure FIG. 1D”, in series [1], the “rate of body weight increase” value is listed as “lower rate of body weight increase”. In the series on Sprague-Dawley (SD) rats [2], the “duration of c-peptide level compared to rats injected with Degludec” value is listed as “maintained the level of c-peptide for a longer time”. In addition, the IGF-1R activation result in the series with IGF-1R (FIG. 19, listed as 4) was “none of insulin analogs 1, 2, 3, and 4 showed IGF-1R activation; also recorded: lack of IGF-1R activation”. Further, the “duration of decrease in glucose levels” value with Sprague-Dawley (SD) rats [3] (setting [7]) is on record as “longer lasting decrease in glucose levels”. In the series on Sprague-Dawley (SD) rats [3] (SD rats), the “glucose area under the curve (AUC) values” (shortened to “glucose area under the curve”) is “follow the order of their specific activities”.
On to “APi3545: A-chain SEQ ID NO: 11 (A14 Aad), B-chain SEQ ID NO: 16 (B16 His(5-I), B25 Ala(4-thiazoyl)); structure FIG. 1H”, for which the “glucose lowering effect / biopotency measured in ICR mice” value in the series on ICR mice [4] is listed as “most active”. Besides, in the series with Sprague-Dawley (SD) rats [2], the “time undetectable c-peptide level was maintained” value was “up to 72 hours” and the “duration of c-peptide level compared to rats injected with Degludec” value was “maintained the level of c-peptide for a longer time”. Also, the “duration of decrease in glucose levels” value with Sprague-Dawley (SD) rats [3] (setting [7]) is “longer lasting decrease in glucose levels”. Also, in the series on Sprague-Dawley (SD) rats [3] (structure-activity relationship (Example 5)), the “duration of action among insulin analogs tested” value is recorded as “most long-acting insulin analog tested”.
As to “insulin reference standard: insulin reference standard (27.2 IU/mg) of chapter <1211> of Chinese Pharmacopeia biopotency test”, in the series with ICR mice [5], the “potency of insulin reference standard” value is reported as 27.2 IU/mg.
Take “insulin analog 3: A-chain SEQ ID NO: 3 (A14 Gla), B-chain SEQ ID NO: 8 (B16 and B25 Pal, B28 Hyp); structure FIG. 1C”: the “duration of c-peptide level compared to rats injected with Degludec” value in the series on Sprague-Dawley (SD) rats [2] is “maintained the level of c-peptide for a longer time”. For the same substance, the IGF-1R activation entry in the series with IGF-1R (FIG. 19, listed as 3) was “none of insulin analogs 1, 2, 3, and 4 showed IGF-1R activation; also recorded: lack of IGF-1R activation”. Further, in the series on Sprague-Dawley (SD) rats [3] (setting [7]), the “magnitude of glucose lowering effect among analogs tested” value is “most profound glucose lowering effect” and the “duration of decrease in glucose levels” value is reported as “longer lasting decrease in glucose levels”. Also, the “glucose area under the curve” value in the series with Sprague-Dawley (SD) rats [3] (SD rats) is “follow the order of their specific activities”.
As to “insulin analog 2: A-chain SEQ ID NO: 3 (A14 Gla), B-chain SEQ ID NO: 6 (B16 and B25 Pal, B28 Pro); structure FIG. 1B”, the “rate of body weight increase” value in series [1] is reported as “lower rate of body weight increase”. For the same substance, the “glucose lowering effect / biopotency measured in ICR mice” value with ICR mice [4] is reported as “most active”. Moreover, in the series with Sprague-Dawley (SD) rats [2], the “c-peptide lowering effect among analogs tested” value is “most profound and longest-lasting c-peptide lowering effect”; the “duration of c-peptide level compared to rats injected with Degludec” value is listed as “maintained the level of c-peptide for a longer time”. Further, the IGF-1R activation result with IGF-1R (FIG. 19, listed as 2) is “none of insulin analogs 1, 2, 3, and 4 showed IGF-1R activation; also recorded: lack of IGF-1R activation”. In the series with Sprague-Dawley (SD) rats [3] (SD rats, 175 nmol-200 nmol s.c., listed as 2), the “duration of decrease in glucose levels” value was “longer lasting decrease in glucose level”. Moreover, the “glucose area under the curve” value in the series with Sprague-Dawley (SD) rats [3] (SD rats) is given as “follow the order of their specific activities”.
For “insulin analog 1: A-chain SEQ ID NO: 3 (A14 Gla), B-chain SEQ ID NO: 4 (B16 and B25 His(3-Me)); structure FIG. 1A”, in series [1], the “rate of body weight increase” value is “lower rate of body weight increase”. The “duration of c-peptide level compared to rats injected with Degludec” value with Sprague-Dawley (SD) rats [2] is given as “maintained the level of c-peptide for a longer time”. Moreover, the IGF-1R activation entry with IGF-1R (FIG. 19, listed as 1) was “none of insulin analogs 1, 2, 3, and 4 showed IGF-1R activation; also recorded: lack of IGF-1R activation”. Moreover, in series [6], the “effect on animal body weight” value is on record as “no significant effect”. Besides, the “glucose profile compared to db/db vehicle control” value was “statistically significantly lower” in the series on db/db mice (0.12 mg/kg, s.c. single dose, 2, 4, 6 and 8 hr time points, FIG. 2); “statistically lower” with db/db mice (0.36 mg/kg, entire time course starting from 2 hr time point); “statistically significantly lower” with db/db mice (0.36 mg/kg, s.c. single dose, 2, 4, 6 and 8 hr time points, FIG. 2). Further, in the series with db/db mice (0.36 mg/kg, 0.12 mg/kg and 0.04 mg/kg doses), the “response (glucose level decrease) versus dose” value is “dose proportional”. Further, the “duration of decrease in glucose levels” value in the series on Sprague-Dawley (SD) rats [3] (setting [7]) is listed as “longer lasting decrease in glucose levels”.
In the case of Degludec [reference compound], the “effect on animal body weight” value in series [6] is on record as “no significant effect”.
